Measurements: US11008314B2, “Compounds and methods for modulating interleukin-2-inducible t-cell kinase” (CORVUS PHARMACEUTICALS, INC., priority 2016, dated 2021)

Legend:
Format in all cases: biochemical
ITK = ITK (Homo sapiens (Human), UniProt Q08881); test: IC50 against ITK
TXK = TXK (Homo sapiens (Human), UniProt P42681); test: IC50 against TXK; settings: for TXK/ITK: ratio of TXK IC50 to ITK IC50
JAK3 = JAK3 (Homo sapiens (Human), UniProt P52333); test: IC50 against JAK3
BTK = BTK (Homo sapiens (Human), UniProt Q06187); test: IC50 against BTK
BTK, sequence (Q06187 whole entry, species assumed): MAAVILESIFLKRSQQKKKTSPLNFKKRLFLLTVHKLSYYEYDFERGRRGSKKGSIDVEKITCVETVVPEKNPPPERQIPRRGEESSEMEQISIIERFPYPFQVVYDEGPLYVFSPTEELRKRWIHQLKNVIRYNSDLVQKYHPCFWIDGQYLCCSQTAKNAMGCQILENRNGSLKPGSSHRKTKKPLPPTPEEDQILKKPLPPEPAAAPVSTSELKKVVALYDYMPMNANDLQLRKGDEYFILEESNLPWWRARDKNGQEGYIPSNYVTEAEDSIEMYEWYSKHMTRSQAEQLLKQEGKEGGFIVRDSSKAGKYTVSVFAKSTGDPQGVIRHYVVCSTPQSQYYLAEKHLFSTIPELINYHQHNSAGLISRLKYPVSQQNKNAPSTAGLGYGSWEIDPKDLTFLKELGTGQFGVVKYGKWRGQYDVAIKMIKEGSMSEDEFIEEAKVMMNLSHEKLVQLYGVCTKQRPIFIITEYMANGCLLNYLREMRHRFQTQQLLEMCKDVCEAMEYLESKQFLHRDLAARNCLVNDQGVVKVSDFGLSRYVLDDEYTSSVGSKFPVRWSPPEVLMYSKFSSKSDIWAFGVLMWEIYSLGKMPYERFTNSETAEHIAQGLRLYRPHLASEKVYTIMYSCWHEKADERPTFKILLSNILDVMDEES

TXK, sequence (P42681 whole entry, species assumed): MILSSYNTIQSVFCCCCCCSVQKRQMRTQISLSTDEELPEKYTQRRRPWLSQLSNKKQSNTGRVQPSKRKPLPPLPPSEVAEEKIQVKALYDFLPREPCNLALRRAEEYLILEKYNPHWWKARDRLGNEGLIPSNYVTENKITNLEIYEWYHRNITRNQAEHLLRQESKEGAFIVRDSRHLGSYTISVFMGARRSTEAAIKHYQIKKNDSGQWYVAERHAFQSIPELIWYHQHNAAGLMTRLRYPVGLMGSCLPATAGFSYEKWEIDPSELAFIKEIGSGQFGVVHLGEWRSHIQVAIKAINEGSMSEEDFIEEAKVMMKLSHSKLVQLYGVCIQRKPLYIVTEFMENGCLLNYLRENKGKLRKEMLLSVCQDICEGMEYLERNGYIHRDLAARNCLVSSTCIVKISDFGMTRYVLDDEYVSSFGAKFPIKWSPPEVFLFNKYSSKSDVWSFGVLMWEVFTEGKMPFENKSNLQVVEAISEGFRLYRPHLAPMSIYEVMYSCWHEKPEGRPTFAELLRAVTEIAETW
JAK3, sequence (P52333 whole entry, species assumed): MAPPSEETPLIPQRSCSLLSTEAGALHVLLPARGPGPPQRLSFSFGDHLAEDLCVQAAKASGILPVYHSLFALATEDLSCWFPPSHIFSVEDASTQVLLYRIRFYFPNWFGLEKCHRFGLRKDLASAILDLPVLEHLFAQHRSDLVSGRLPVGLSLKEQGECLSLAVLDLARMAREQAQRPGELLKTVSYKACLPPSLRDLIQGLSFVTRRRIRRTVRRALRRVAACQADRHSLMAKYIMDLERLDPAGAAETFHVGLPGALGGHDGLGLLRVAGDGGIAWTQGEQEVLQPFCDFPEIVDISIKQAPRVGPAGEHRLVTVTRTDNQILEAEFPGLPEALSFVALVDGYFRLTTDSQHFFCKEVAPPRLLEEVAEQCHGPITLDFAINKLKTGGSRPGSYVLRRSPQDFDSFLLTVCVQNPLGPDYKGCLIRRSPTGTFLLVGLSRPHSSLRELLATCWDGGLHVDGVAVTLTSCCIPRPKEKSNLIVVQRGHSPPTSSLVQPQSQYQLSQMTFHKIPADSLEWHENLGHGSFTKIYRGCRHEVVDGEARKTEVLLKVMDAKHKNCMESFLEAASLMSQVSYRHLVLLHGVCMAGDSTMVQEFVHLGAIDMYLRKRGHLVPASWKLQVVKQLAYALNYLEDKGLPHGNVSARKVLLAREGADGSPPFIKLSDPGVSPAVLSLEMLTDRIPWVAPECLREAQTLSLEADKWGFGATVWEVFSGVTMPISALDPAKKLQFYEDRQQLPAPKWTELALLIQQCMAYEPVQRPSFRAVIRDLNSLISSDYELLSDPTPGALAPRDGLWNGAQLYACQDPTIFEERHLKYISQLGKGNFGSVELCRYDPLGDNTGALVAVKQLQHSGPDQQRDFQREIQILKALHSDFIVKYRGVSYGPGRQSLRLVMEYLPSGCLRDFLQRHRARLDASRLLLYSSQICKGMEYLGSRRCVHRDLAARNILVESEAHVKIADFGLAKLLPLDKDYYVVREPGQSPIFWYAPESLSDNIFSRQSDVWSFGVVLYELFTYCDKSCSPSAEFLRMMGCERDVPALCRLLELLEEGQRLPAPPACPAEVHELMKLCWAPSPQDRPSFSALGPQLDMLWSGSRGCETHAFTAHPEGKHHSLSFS
ITK, sequence (Q08881 whole entry): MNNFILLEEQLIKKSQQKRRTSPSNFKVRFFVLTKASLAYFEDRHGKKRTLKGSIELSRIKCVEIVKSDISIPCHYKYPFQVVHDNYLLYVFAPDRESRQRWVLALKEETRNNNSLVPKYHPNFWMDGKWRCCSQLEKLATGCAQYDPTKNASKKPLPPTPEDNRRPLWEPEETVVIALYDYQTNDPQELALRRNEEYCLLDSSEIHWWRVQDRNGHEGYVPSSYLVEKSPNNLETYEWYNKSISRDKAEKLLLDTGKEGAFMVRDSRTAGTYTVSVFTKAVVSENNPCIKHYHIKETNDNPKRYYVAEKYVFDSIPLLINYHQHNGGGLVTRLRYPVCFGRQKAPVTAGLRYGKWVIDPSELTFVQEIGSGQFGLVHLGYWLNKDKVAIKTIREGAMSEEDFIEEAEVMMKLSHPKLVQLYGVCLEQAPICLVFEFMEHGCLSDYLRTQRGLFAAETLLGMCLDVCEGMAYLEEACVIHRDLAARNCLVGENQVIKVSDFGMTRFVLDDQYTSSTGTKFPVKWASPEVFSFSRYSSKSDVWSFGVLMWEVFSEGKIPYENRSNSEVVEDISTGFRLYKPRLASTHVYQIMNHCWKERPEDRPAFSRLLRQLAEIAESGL

Row | SMILES | IC50 (ITK) [nM] | IC50 (TXK) [nM] | TXK/ITK (TXK) | IC50 (JAK3) [nM] | IC50 (BTK) [nM]
1 | C=CC(=O)N1CCN(C(=O)c2cc(Sc3cnc(NC(=O)c4ccc(N5CCN(C(=O)CCOCCOCCOCCOCCNC(=O)CCCCC6SCC7NC(=O)NC76)CC5)cc4)s3)c(C)cc2OC)CC1 (stereo not shown) [Compound 41] | < 10 | 10 to 100 | 21.91 | 10 to 100 | 10 to 100
2 | C=CC(=O)N1CCN(C(=O)c2cc(Sc3cnc(NC(=O)C4CC4)s3)c(C)cc2OC)C[C@H]1CC [Compound 42] | < 10 | 10 to 100 | 10.152 | 1000 to 10000 | 1000 to 10000
3 | C=CC(=O)N1CCN(C(=O)c2cc(Sc3cnc(NC(=O)C4CC4)s3)c(C)cc2OC)C[C@H]1C#N [Compound 43] | < 10 | < 10 | 3.4821 | 10 to 100 | 10 to 100
4 | C=CC(=O)N1CC2(CCN(C(=O)c3cc(Sc4cnc(NC(=O)C5CC5)s4)c(C)cc3OC)C2)C1 [Compound 45] | < 10 | < 10 | 4.1551 | 10 to 100 | 10 to 100
5 | C=CC(=O)N1CCC2(C1)CN(C(=O)c1cc(Sc3cnc(NC(=O)C4CC4)s3)c(C)cc1OC)C2 [Compound 46] | < 10 | < 10 | 3.4072 | 100 to 1000 | 10 to 100
6 | C=CC(=O)N1CCCN(C(=O)c2cc(Sc3cnc(NC(=O)CC)s3)c(C)cc2OC)C[C@H]1C [Compound 47] | 10 to 100 | ≥ 10000 | 181.42 | ≥ 10000 | ≥ 10000
7 | C=CC(=O)N1CCCN(C(=O)c2cc(Sc3cnc(NC(=O)c4cccc(CN(C)C)c4)s3)c(C)cc2OC)C[C@H]1C [Compound 48] | 10 to 100 | ≥ 10000 | 519.55 | ≥ 10000 | 1000 to 10000
8 | C=CC(=O)N1CCCN(C(=O)c2cc(Sc3cnc(NC(=O)c4cccc(CN5CCOCC5)c4)s3)c(C)cc2OC)CC1 [Compound 49] | 10 to 100 | 1000 to 10000 | 37.652 | 1000 to 10000 | 1000 to 10000
9 | C=CC(=O)N1CCN(C(=O)c2cc(Sc3cnc(NC(=O)CC)s3)c(C)cc2OC)[C@@H](C)C1 [Compound 51] | < 10 | 10 to 100 | 14.645 | 1000 to 10000 | 100 to 1000
10 | C=CC(=O)N1CCCN(C(=O)c2cc(Sc3cnc(NC(=O)C4CC4)s3)c(C)cc2OC)CCC1 [Compound 53] | < 10 | 100 to 1000 |  | 1000 to 10000 | 100 to 1000
11 | C=CC(=O)N1CCN(C(=O)c2cc(Sc3cnc(NC(=O)C4CC4)s3)c(C)cc2OC)CC[C@H]1C [Compound 54] | 10 to 100 | 10 to 100 | 0.804 | 1000 to 10000 | 1000 to 10000
12 | C=CC(=O)N1CCN(C(=O)c2cc(Sc3cnc(NC(=O)C4CC4)s3)c(C)cc2OC)CC(F)C1 (stereo not shown) [Compound 55] | < 10 | < 10 | 6.2416 | 10 to 100 | 10 to 100
13 | C=CC(=O)N1CCCN(C(=O)c2cc(Sc3cnc(NC(=O)c4cccc(CN[C@H](C)C(C)(C)C)c4)s3)c(C)cc2OC)CC1 [Compound 56] | < 10 | 1000 to 10000 | 168.17 | 1000 to 10000 | 100 to 1000
14 | C=CC(=O)N1CCCN(C(=O)c2cc(Sc3cnc(NC(=O)C(C)(C)C)s3)c(C)cc2OC)CC1 [Compound 57] | 100 to 1000 | ≥ 10000 | 15.564 | ≥ 10000 | ≥ 10000
15 | C=CC(=O)N1CCCN(C(=O)c2cc(CSc3cnc(NC(=O)C4CC4)s3)cc(C)c2C)CC1 [Compound 58] | 1000 to 10000 | 1000 to 10000 | 2.9749 | 1000 to 10000 | ≥ 10000
16 | C=CC(=O)N1CCCN(C(=O)c2cc(Sc3cnc(NC(=O)C4CC4)s3)c(C)cc2C)C[C@H]1C [Compound 59] | < 10 | 100 to 1000 | 166.05 | 1000 to 10000 | 1000 to 10000
17 | C=CC(=O)N1CCCN(C(=O)c2cc(Sc3cnc(NC(=O)C4CC4)s3)c(C)cc2F)C[C@H]1C [Compound 60] | 10 to 100 | 1000 to 10000 | 21.785 | ≥ 10000 | ≥ 10000
18 | C=CC(=O)N1CCCN(C(=O)c2cc(Sc3cnc(NC(=O)C4CC4)s3)c(C)cc2Cl)C[C@H]1C [Compound 61] | 10 to 100 | 100 to 1000 | 50.716 | 1000 to 10000 | ≥ 10000
19 | C=CC(=O)N1CCCN(C(=O)c2cc(Sc3cnc(NC(=O)C4CC4)s3)c(Cl)cc2C)C[C@H]1C [Compound 62] | < 10 | 1000 to 10000 | 320.16 | 1000 to 10000 | 1000 to 10000
20 | C=CC(=O)N1CCCN(C(=O)c2cc(Sc3cnc(NC(=O)C4CC4)s3)cc(C)c2C)C[C@H]1C [Compound 63] | 100 to 1000 | 1000 to 10000 | 61.086 | ≥ 10000 | ≥ 10000

Row | SMILES | IC50 (ITK) [nM] | IC50 (TXK) [nM] | TXK/ITK (TXK) | IC50 (JAK3) [nM] | IC50 (BTK) [nM]
21 | C=CC(=O)N1CCCN(C(=O)c2cc(C)c(C)c(Sc3cnc(NC(=O)C4CC4)s3)c2)C[C@H]1C [Compound 64] | 100 to 1000 | 1000 to 10000 | 11.944 | ≥ 10000 | ≥ 10000
22 | C=CC(=O)N1CCN(C(=O)c2cc(Cc3cnc(NC(=O)C4CC4)s3)c(C)cc2OC)CC1 [Compound 65] | < 10 | < 10 | 0.392 | 100 to 1000 | 10 to 100
23 | C=CC(=O)N1CCN(C(=O)c2cc(Sc3cnc(NC(=O)c4cccc(CN(C)C)c4)s3)c(C)cc2OC)CC(F)C1 (stereo not shown) [Compound 66] | < 10 | 100 to 1000 | 70.047 | 100 to 1000 | 100 to 1000
24 | C=CC(=O)N1CCN(C(=O)c2cc(Sc3cnc(NC4CC4)s3)c(C)cc2OC)CC1 [Compound 67] | ≥ 10000 | 1000 to 10000 | 0.634 | 1000 to 10000 | ≥ 10000
25 | C=CC(=O)N1CCN(C(=O)c2cc(Sc3cnc(NC(=O)C4CC4)s3)c(C)cc2C(F)(F)F)CC1 [Compound 68] | 10 to 100 | 100 to 1000 | 3.6548 | 1000 to 10000 | ≥ 10000
26 | C=CC(=O)N1CCN(C(=O)c2cc(Sc3cnc(NC(=O)C4CC4)s3)c(C)cc2C(F)(F)F)C[C@H]1C [Compound 69] | 100 to 1000 | 100 to 1000 | 4.9369 | 1000 to 10000 | ≥ 10000
27 | C=CC(=O)N1CCCN(C(=O)c2cc(Sc3cnc(NC(=O)C4CC4)s3)c(C)cc2C(F)(F)F)C[C@H]1C [Compound 70] | 10 to 100 | 1000 to 10000 | 35.68 | ≥ 10000 | ≥ 10000
28 | C=CC(=O)N1CCCN(C(=O)c2cc(Sc3cnc(NC(=O)C4CC4)s3)c(C)cc2OC)[C@@H](C)C1 [Compound 72] | 100 to 1000 | 1000 to 10000 | 1.1846 | ≥ 10000 | ≥ 10000
29 | C=CC(=O)N1CCN(C(=O)c2cc(Sc3cnc(NC(=O)C4CC4)s3)c(C)cc2C)CC1 [Compound 73] | < 10 | 10 to 100 | 3.2627 | 100 to 1000 | 100 to 1000
30 | C=CC(=O)N1CCCN(C(=O)c2cc(Sc3cnc(NC(=O)C4CC4)s3)c(C)cc2C)CC1 [Compound 74] | < 10 | 100 to 1000 | 16.033 | 100 to 1000 | 100 to 1000
31 | C=CC(=O)N1CCN(C(=O)c2cc(Sc3cnc(NC(=O)C4CC4)s3)c(C)cn2)CC1 [Compound 76] | ≥ 10000 | ≥ 10000 | 1 | ≥ 10000 | ≥ 10000
32 | C=CC(=O)N1CCCN(C(=O)c2cc(Sc3cnc(NC(=O)C4CC4)s3)ccc2OC)C[C@H]1C [Compound 77] | 10 to 100 | 1000 to 10000 | 95.398 | 1000 to 10000 | ≥ 10000
33 | C=CC(=O)N1CCN(C(=O)c2cc(Sc3cnc(NC(=O)C4CC4)s3)ccc2OC)CC1 [Compound 78] | < 10 | 10 to 100 | 10.586 | 100 to 1000 | 100 to 1000
34 | C=CC(=O)N1CCN(C(=O)c2cc(Sc3cnc(NC(=O)C4CC4)s3)ccc2OC)C[C@H]1C [Compound 79] | 10 to 100 | 100 to 1000 | 21.331 | 100 to 1000 | ≥ 10000
35 | C=CC(=O)N1CCN(C(=O)c2cc(Sc3cnc(NC(=O)C4CC4)s3)c(Cl)cc2C)CC1 [Compound 80] | < 10 | 10 to 100 | 8.1619 | 10 to 100 | 100 to 1000
36 | C=CC(=O)N1CCN(C(=O)c2cc(Sc3cnc(NC(=O)C4CC4)s3)c(Cl)cc2C)C[C@H]1C [Compound 81] | < 10 | 100 to 1000 | 19.042 | 100 to 1000 | 1000 to 10000
37 | C=CC(=O)N1CCN(C(=O)c2cc(Sc3cnc(NC(=O)C4CC4)s3)c(F)cc2C)C[C@H]1C [Compound 82] | 10 to 100 | 100 to 1000 | 9.2468 | 100 to 1000 | ≥ 10000
38 | C=CC(=O)N1CCCN(C(=O)c2cc(Sc3cnc(NC(=O)C4CC4)s3)c(F)cc2C)C[C@H]1C [Compound 83] | 10 to 100 | 1000 to 10000 | 45.317 | 1000 to 10000 | ≥ 10000
39 | C=CC(=O)N1CCN(C(=O)c2cc(Sc3cnc(NC(=O)C4CCC4)s3)c(C)cc2OC)CC1 [Compound 84] | < 10 | 10 to 100 | 21.948 | 1000 to 10000 | 1000 to 10000
40 | C=CC(=O)N1CCN(C(=O)c2cc(Sc3cnc(NC(=O)c4cnsc4)s3)c(C)cc2OC)CC1 [Compound 85] | < 10 | 10 to 100 | 33.582 | 100 to 1000 | 100 to 1000
